Patent US20240252508A1, “Novel glucose uptake inhibitors for use in the treatment of cancer” (NOVELYEAST BV, priority 2021, published 2024)
Entries after “also recorded” stand apart in the source; their conditions may differ.

Tests used:
hexokinase = assay: In vitro hexokinase activity in extracts of wild type cells; assay type: biochemical, S. cerevisiae; settings: 50 μM WBC-A
Protocol: In vitro hexokinase activity was determined as described previously 43, s. As such, cells were first grown to exponential phase on complete Synthetic medium supplemented with 2% galactose. The cells were harvested and washed with ice-cold 25 mM MES buffer pH 6. Subsequently, cells were resuspended in lysis buffer (50 mM HEPES pH 7, 150 mM NaCl, 2.5 mM MgCl2, 5% glycerol and 1% Triton X-100) containing protease inhibitor after which the cells were mechanically lysed. After protein level determination, total protein concentration was diluted to 0.1 mg/mL in reaction buffer (50 mM HEPES pH 7, 150 mM NaCl, 2.5 mM MgCl2, 5% glycerol). For measuring activity, reaction buffer was supplemented with 0.8 mg/mL NADP^+ and 50 μg/mL Glu6P dehydrogenase. After temperature equilibration of the plate at 30° C., the reaction was started by adding both ATP and glucose to the reaction buffer. OD340 was measured using the Synergy H1 Hybrid reader and hexokinase activity was determined based on the linear increase of absorbance in the first 10-20s.

[1] = Warbicin toxicity and tolerability in mice; assay type: in vivo, NMRI-nu mice
Protocol: Warbicin in vivo toxicity and tolerability was examined by subjecting NMRI-nu mice to daily intraperitoneal injection of either WBC-A, WBC-15C, WBC-4C or WBC-11C. Compounds were dosed at either 5 mg/kg, 10 mg/kg or 20 mg/kg over a period of 20 days. Three mice were used per condition. To evaluate toxicity, change in body weight was registered daily. As a humane endpoint, mice that lost more than 20% of their original body weight were prematurely sacrificed. An optimal dissolve strategy was developed to administer WBC compounds by intraperitoneal injection. Due to their considerable hydrophobicity, compounds were dissolved in a sterilized 1×PBS, 5% DMSO and 5% Tween-80 solution. For WBC-A, -15C and -4C, this gives an initial clear solution that gradually changes over time into a homogenous suspension which can still be administered in a reproducible way. For WBC-11C it immediately results in a homogenous suspension.

Structure (SMILES): Cc1nc(Sc2nnc3n2CCCCC3)c2c(-c3cccs3)csc2n1 [WBC-A]
- Effect on in vitro hexokinase activity (hexokinase): No significant effect
- Other abnormalities at autopsy ([1]; daily i.p. 5, 10, 20 mg/kg, 20 days): No other abnormalities
- Loss in body weight over 20 days ([1]; daily i.p. 5, 10 and 20 mg/kg, nude mice): no significant loss in body weight; also recorded: No significant difference
- AST/ALT ratio vs vehicle ([1]; sera after 20 days, 5, 10, 20 mg/kg i.p.): No significant difference
- Blood glucose level vs vehicle ([1]; sera post mortem after 20 days, 5, 10, 20 mg/kg i.p.): No significant difference
